{
  "source": "patent US11090308B2",
  "about": "“Methods of treating liver disorders or lipid disorders with a THR-beta agonist” (Madrigal Pharmaceuticals, Inc., priority 2016, dated 2021)",
  "key": {"BCRP": {"target": "T1, BCRP (Homo sapiens, UniProt Q9UNQ0)", "T1 sequence (Q9UNQ0 1-655)": "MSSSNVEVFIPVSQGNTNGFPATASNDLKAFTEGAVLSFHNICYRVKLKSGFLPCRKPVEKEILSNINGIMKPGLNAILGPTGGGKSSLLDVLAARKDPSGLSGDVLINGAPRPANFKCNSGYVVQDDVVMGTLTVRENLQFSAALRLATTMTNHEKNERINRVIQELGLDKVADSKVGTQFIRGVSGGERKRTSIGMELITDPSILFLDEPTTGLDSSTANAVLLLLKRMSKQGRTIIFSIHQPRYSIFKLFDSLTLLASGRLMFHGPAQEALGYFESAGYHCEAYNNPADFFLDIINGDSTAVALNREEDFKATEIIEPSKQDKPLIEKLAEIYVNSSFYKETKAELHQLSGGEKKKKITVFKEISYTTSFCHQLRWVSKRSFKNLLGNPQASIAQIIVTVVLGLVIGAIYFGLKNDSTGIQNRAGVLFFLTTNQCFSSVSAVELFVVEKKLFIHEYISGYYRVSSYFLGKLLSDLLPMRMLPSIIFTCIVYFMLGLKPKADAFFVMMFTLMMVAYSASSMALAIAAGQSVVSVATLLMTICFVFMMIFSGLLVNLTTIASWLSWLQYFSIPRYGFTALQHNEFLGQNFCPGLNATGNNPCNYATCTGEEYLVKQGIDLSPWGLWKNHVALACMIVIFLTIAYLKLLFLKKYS", "assay": "In vitro drug transporter assay, BCRP", "format": "in vitro ADME", "source_text": "(§1) The following studies have been conducted: (a) in vitro drug protein binding, transporter (organic anion transporting polypeptide [OATP], P-glycoprotein [P-gp], breast cancer-related protein [BCRP], and multiple drug resistance protein 1 [MDR1]), and cytochrome P-450 enzyme assays to investigate absorption, distribution, and excretion; (b) in vivo MGL-3196 rat and dog oral PK and bioavailability studies; (c) in vivo ^14C-MGL-3196 rat and dog oral pharmacokinetics, absorption, excretion, and tissue distribution by quantitative whole-body autoradiography (QWBA) studies; and (d) liver disposition of MGL-3196 using an in vitro sandwiched hepatocyte model system (B-CLEAR® technology) in dog (SCDH) and human (SCHH) hepatocytes."}, "MDR1 (P-gp)": {"target": "MDR1 (P-gp) (Homo sapiens, UniProt P08183)", "sequence (P08183 whole entry, species assumed)": "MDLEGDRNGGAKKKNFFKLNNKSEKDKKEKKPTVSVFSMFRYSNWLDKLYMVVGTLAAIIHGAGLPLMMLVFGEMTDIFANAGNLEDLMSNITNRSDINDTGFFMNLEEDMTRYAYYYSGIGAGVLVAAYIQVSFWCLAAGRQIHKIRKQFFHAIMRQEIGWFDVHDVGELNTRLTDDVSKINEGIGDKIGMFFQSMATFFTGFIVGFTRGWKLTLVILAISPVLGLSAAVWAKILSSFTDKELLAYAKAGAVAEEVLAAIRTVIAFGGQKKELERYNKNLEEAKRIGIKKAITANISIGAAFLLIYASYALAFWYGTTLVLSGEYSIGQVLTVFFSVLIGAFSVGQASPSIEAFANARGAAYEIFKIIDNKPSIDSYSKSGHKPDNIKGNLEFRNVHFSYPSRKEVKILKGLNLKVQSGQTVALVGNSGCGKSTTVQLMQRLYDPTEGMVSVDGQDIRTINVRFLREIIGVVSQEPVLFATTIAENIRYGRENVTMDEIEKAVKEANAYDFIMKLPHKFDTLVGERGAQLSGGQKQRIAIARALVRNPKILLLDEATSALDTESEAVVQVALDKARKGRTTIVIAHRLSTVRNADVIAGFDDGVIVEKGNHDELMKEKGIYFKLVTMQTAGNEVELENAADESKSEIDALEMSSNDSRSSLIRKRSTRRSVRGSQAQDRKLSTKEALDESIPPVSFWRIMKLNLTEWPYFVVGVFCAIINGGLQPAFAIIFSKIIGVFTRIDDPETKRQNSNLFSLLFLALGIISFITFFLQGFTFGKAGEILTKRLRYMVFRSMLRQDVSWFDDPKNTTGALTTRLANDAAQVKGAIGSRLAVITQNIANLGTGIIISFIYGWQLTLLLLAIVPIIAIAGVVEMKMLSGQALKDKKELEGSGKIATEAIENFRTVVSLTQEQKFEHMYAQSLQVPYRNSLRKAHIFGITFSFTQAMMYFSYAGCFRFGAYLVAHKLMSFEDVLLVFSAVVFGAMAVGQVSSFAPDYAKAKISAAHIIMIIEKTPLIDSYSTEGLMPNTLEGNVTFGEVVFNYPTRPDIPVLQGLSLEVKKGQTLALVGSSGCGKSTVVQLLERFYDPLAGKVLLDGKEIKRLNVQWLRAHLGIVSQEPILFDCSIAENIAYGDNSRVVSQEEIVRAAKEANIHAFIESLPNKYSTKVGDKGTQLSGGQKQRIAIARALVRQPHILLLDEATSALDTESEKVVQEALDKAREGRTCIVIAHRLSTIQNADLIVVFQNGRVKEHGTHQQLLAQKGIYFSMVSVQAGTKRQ", "assay": "In vitro drug transporter assay, MDR1 (P-gp)", "format": "in vitro ADME", "source_text": "as §1"}, "MRP2": {"target": "MRP2 (Homo sapiens, UniProt Q92887)", "sequence (Q92887 whole entry, species assumed)": "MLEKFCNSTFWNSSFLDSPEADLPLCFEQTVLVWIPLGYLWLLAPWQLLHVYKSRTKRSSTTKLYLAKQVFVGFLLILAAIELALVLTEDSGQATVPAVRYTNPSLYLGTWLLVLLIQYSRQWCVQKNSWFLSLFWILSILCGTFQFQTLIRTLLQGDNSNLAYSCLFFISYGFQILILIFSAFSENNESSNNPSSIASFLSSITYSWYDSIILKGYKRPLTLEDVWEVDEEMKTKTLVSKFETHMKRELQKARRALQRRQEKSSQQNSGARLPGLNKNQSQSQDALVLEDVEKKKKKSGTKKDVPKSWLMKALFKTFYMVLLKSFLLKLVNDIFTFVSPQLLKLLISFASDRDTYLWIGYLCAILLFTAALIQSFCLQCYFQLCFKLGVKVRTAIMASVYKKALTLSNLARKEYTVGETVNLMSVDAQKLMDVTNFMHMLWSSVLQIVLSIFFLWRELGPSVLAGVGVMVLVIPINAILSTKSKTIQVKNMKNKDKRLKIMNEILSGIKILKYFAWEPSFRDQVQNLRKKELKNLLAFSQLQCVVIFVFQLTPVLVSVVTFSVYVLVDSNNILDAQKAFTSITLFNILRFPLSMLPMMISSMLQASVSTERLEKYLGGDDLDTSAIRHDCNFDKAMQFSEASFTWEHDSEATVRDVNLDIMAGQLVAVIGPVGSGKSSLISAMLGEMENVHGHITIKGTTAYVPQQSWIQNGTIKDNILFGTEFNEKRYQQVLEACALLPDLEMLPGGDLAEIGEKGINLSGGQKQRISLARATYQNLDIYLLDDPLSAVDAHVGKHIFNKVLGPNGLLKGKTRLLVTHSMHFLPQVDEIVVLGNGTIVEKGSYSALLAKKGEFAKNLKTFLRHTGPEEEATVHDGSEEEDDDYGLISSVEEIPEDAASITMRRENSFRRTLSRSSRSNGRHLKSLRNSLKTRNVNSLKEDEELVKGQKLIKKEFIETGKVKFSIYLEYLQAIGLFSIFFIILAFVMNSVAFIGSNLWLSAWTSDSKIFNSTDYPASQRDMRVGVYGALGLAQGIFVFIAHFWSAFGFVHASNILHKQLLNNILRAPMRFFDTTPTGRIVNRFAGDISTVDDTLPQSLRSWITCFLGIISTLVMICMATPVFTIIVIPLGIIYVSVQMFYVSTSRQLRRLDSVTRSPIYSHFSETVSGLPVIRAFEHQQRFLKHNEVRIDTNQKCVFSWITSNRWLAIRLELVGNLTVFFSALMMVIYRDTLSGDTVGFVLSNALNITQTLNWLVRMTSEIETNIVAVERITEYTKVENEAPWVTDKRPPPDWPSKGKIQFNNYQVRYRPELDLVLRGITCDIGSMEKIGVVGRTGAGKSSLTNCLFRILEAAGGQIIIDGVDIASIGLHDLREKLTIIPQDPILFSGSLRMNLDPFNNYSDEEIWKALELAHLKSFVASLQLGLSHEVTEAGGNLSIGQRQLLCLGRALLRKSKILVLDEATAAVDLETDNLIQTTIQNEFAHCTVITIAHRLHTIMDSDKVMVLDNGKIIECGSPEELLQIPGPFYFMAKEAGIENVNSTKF", "assay": "In vitro drug transporter assay, MRP2", "format": "in vitro ADME"}, "OAT3": {"target": "T2, OAT3 (Homo sapiens, UniProt Q8TCC7)", "T2 sequence (Q8TCC7 1-542)": "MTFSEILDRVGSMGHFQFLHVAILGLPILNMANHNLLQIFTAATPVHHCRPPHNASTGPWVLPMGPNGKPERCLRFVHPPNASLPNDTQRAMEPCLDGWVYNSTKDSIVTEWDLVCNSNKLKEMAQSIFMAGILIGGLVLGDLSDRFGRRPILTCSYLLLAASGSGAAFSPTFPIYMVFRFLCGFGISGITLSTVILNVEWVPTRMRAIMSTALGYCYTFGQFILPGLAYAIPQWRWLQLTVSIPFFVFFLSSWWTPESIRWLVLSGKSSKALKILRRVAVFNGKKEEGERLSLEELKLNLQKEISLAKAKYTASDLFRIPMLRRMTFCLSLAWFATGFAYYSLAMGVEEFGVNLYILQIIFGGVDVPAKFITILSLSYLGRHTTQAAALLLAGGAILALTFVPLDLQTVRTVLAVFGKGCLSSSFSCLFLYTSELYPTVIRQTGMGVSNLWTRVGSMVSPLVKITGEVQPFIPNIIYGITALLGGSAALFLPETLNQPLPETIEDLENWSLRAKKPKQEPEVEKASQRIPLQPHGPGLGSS", "assay": "In vitro drug transporter assay, OAT3", "format": "in vitro ADME", "settings": "read-out: Inhibitor of: OAT3, IC50"}, "BSEP": {"target": "BSEP (Homo sapiens, UniProt O95342)", "sequence (O95342 whole entry, species assumed)": "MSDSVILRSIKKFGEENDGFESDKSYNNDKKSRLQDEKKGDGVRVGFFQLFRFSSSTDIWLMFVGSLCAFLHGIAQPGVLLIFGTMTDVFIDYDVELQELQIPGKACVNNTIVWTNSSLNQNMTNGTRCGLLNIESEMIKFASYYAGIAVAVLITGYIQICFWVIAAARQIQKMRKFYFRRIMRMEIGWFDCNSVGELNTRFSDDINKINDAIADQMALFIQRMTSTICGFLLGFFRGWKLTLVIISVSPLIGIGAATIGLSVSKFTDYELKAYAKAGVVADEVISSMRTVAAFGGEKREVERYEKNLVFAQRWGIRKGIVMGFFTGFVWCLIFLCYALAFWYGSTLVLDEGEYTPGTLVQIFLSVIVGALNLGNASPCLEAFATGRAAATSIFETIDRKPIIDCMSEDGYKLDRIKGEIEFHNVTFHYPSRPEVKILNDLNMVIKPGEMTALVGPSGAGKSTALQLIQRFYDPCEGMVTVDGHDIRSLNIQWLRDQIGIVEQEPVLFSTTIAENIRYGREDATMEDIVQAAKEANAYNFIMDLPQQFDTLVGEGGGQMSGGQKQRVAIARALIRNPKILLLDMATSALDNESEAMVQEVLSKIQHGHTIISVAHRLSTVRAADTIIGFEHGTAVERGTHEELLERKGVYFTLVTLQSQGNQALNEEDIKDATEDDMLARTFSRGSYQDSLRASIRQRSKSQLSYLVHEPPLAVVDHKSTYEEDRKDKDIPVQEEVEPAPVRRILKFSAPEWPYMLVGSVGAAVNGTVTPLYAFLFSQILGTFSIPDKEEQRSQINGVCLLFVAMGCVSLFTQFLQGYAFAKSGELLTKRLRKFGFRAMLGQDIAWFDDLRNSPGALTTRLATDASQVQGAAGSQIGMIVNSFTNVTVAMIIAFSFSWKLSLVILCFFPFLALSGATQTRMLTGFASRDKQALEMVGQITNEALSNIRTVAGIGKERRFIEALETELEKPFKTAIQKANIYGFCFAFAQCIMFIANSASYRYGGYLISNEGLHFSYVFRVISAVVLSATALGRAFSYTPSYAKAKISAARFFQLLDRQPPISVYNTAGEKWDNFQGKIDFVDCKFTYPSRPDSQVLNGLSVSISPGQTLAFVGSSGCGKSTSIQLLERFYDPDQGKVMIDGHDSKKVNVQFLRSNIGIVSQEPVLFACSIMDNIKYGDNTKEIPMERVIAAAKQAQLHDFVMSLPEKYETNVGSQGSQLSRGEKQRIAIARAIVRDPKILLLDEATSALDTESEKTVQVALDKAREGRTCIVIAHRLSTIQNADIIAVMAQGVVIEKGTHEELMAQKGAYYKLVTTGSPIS", "assay": "In vitro drug transporter assay, BSEP", "format": "in vitro ADME", "settings": "BSEP-mediated transport of TCA; read-out: Inhibitor of: BSEP, IC50"}, "in vitro": {"assay": "in vitro", "format": "in vitro ADME, all species", "settings": "plasma", "source_text": "as §1"}, "[1]": {"assay": "Dog oral PK and bioavailability studies", "format": "in vivo", "source_text": "as §1\nRat & Dog PK/Bioavailability Studies were also performed."}, "CYP3A4": {"target": "CYP3A4 (Homo sapiens, UniProt P08684)", "sequence (P08684 2-503 limits assumed)": "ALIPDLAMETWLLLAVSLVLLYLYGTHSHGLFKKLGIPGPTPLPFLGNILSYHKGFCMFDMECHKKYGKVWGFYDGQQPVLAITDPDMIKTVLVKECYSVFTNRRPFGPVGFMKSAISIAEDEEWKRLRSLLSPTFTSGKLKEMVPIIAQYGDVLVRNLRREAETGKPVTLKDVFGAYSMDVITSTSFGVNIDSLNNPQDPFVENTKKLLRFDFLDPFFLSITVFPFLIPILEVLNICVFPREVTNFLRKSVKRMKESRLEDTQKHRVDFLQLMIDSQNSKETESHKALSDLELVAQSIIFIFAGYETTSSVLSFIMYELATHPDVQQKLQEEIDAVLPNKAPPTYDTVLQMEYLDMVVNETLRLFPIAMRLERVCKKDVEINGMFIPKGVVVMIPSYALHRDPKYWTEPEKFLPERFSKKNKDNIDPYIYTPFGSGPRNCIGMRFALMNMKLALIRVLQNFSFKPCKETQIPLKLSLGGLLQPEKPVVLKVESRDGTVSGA", "assay": "In vitro Cytochrome P-450 enzyme assay, CYP3A4", "format": "in vitro ADME", "source_text": "as §1"}, "CYP2A6": {"target": "T3, CYP2A6 (Homo sapiens, UniProt P11509)", "T3 sequence (P11509 1-494)": "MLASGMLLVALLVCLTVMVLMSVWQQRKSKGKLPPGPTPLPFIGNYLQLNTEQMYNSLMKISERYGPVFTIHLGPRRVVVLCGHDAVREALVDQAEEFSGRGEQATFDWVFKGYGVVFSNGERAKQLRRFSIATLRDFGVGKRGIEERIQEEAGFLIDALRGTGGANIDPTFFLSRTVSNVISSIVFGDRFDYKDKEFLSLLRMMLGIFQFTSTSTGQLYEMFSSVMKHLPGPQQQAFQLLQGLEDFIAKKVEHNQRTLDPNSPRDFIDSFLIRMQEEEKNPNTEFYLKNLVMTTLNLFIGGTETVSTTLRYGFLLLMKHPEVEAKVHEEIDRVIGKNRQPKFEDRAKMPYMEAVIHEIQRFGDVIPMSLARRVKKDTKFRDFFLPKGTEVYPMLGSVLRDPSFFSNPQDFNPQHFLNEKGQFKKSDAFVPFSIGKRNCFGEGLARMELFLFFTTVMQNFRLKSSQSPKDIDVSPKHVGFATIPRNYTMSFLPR", "assay": "In vitro Cytochrome P-450 enzyme assay, CYP2A6", "format": "in vitro ADME", "source_text": "as §1"}},
  "note": "pIC50: −log10 of the molar value.",
  "data": [
    {"smiles": "CC(C)c1cc(Oc2c(Cl)cc(-n3nc(C#N)c(=O)[nH]c3=O)cc2Cl)n[nH]c1=O", "note": "[MGL-3196, 2-(3,5-dichloro-4-((5-isopropyl-6-oxo-1,6-dihydropyridazin-3-yl)oxy)phenyl)-3,5-dioxo-2,3,4,5-tetrahydro-1,2,4-triazine-6-carbonitrile]", "values": [
      {"measurement": "Substrate for: BCRP", "setting": "BCRP", "value": "BCRP"},
      {"measurement": "Inhibitor of: BCRP, % inhibition", "setting": "BCRP; @ 25 uM genistein", "value": "3-sulfate; 24% @ 25 uM genistein)"},
      {"measurement": "pIC50", "setting": "BCRP; for Estrone-3-sulfate, read-out: Inhibitor of: BCRP, IC50", "value": 4.56},
      {"measurement": "Inhibitor of: MDR1", "setting": "MDR1 (P-gp)", "value": "not an inhibitor"},
      {"measurement": "Substrate for: MDR1 (P-gp)", "setting": "MDR1 (P-gp)", "value": "weak substrate"},
      {"measurement": "Inhibitor of: MRP2", "setting": "MRP2", "value": "not an inhibitor"},
      {"measurement": "Substrate for: MRP2", "setting": "MRP2", "value": "not a substrate"},
      {"measurement": "pIC50", "setting": "OAT3", "value": 5.35},
      {"measurement": "pIC50", "setting": "BSEP", "value": 4.46},
      {"measurement": "fraction unbound", "setting": "in vitro", "value": "< 0.01"},
      {"measurement": "bioavailability", "setting": "[1]; dog, plasma, po", "value": "11 to 135", "unit": "%"},
      {"measurement": "half-life", "setting": "[1]; dog, plasma, dogs, oral dosing, read-out: mean elimination half-life", "value": "3 to 5.5", "unit": "h"},
      {"measurement": "time of maximum plasma concentrations", "setting": "[1]; dogs, oral dosing", "value": "1 to 8", "unit": "h"},
      {"measurement": "Inhibitor of: CYP3A4", "setting": "CYP3A4", "value": "CYP3A4 (weak inhibitor)"},
      {"measurement": "Inhibitor of: CYP2A6", "setting": "CYP2A6", "value": "not an inhibitor"}
    ]}
  ]
}
